Data published in patent publication US5135935A, “Squalene synthetase inhibitors” (Merck & Co., Inc., priority 1991, dated 1992).

Target: T1, Squalene Synthetase (Rattus norvegicus, UniProt Q02769)
T1 construct: from tissue; host or cells: liver microsomes of male Charles River CD rats fed 0.1% lovastatin
T1 sequence (Q02769 1-416): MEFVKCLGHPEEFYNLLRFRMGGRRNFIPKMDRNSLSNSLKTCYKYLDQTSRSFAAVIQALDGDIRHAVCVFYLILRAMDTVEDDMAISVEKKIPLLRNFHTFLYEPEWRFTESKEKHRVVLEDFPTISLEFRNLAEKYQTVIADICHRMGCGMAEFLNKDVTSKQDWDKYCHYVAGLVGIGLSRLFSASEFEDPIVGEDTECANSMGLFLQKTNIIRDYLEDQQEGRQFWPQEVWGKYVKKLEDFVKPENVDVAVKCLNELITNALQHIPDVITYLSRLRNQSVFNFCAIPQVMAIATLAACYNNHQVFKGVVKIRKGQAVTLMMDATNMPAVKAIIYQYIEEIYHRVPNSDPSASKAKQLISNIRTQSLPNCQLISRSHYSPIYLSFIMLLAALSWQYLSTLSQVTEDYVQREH
Test: Squalene synthetase assay, rat liver microsomes, [4-14C]farnesyl pyrophosphate
Type: biochemical
Conditions: salt form as tabulated; for IC50: 30° C., 20 minutes; for inhibition at 0.3 µg/mL: conc. 0.3 μg/mL
Description: The intrinsic squalene synthetase inhibitory activity of representative compounds of this invention was measured by the standard in vitro protocol described below:
Male, Charles River CD rats (120 to 150 g) were fed a diet containing 0.1% lovastatin for 4 days. The livers from these rats were homogenized in 5 volumes (mL/g) of ice cold 50 mM HEPES (4-(2-hydroxyethyl)-1-piperazine-ethanesulfonic acid), 5 mM EDTA (ethylenediaminetetraacetic acid) pH 7.5 with a Potter-Elvehjem type tissue grinder. The homogenate was centrifuged twice at 20,000×g for 15 minutes at 4° C., discarding the pellet each time. The supernatant was then centrifuged at 100,000×g for 1 hour at 4° C. The resulting microsomal pellet was resuspended in a volume of the above homogenizing buffer equal to one-fifth the volume of the original homogenate. This microsomal preparation has a protein concentration of about 7 mg/mL. The microsomal suspensions were stored in aliquots at -70° C. Squalene synthetase activity in these aliquots is stable for at least several months.
Prenyl transferase was purified to use in the enzymatic synthesis of radiolabelled farnesyl pyrophosphate. Prenyl transferase was assayed by the method of Rilling (Methods in Enzymology 110, 125-129 (1985)) and a unit of activity is defined as the amount of enzyme that will produce 1 μmole of farnesyl pyrophosphate per minute at 30° C. in the standard assay.
The livers of 23 forty-day old male rats that had been fed 5% cholestyramine plus 0.1% lovastatin were homogenized in a Waring blender in 1 liter of 10 mM mercaptoethanol, 2 mM EDTA, 25 μM leupeptin, 0.005% phenylmethyl sulfonyl fluoride pH 7.0 containing 0.1 trypsin inhibitor units of aprotinin/mL. The homogenate was centrifuged at 20,000×g for 20 minutes. The supernatant was adjusted to pH 5.5. with 6N HOAc and centrifuged at 100,000×g for 1 hour. This supernatant was adjusted to pH 7.0 with 3N KOH and a 35-60% ammonium sulfate fraction taken. The 60% pellet was redissolved in 60 mL of 10 mM potassium phosphate, 10 mM mercaptoethanol, 1 mM EDTA pH 7.0 (Buffer A) and dialyzed against two 1 liter changes of Buffer A. This dialyzed fraction was applied to a 12.5×5 cm column of DEAE-sepharose 4B equilibrated with Buffer A. The column was washed with 700 mL of Buffer A and a 1 liter gradient from Buffer A to 100 mM potassium phosphate, 10 mM mercaptoethanol, 1 mM EDTA pH 7.0. Fractions having a specific activity greater than 0.20 units/mg were combined, solid ammonium sulfate was added to bring to 60% saturation and pelleted. The pellet was dissolved in 8 mL of 10 mM Tris, 10 mM β-mercaptoethanol pH 7.0 (Buffer B). The redissolved pellet was taken to 60% saturation with ammonium sulfate by adding 1.5 volumes of saturated ammonium sulfate in Buffer B. This ammonium sulfate suspension contained 3.5 units/mL with a specific activity of 0.23 units/mg and was free of isopentenyl pyrophosphate isomerase activity. This ammonium sulfate suspension was used for the synthesis of [4-^14 C]farnesyl-pyrophosphate and its activity was stable stored at 4° C. for at least 6 months.
The solvent (ethanol: 0.15N NH4 OH, 1:1) was removed from 55 μCi of [4-^14 C]isopentenyl pyrophosphate(47.9 μCi/μmole) by rotary evaporation. Six hundred microliters of 100 mM Tris, 10 mM MgCl2, 4 mM dithiothreitol pH 7.5 was added and the solution was transferred to a 1.5 ml Eppendorf centrifuge tube. Geranyl-pyrophosphate, 250 μL of a 20 mM solution, and 50 μL of the ammonium sulfate suspension of prenyl transferase were added to initiate the reaction. This incubation contained 5 μmoles of geranyl pyrophosphate, 1.15 μmoles of isopentenyl pyrophosphate, 6 μmoles of MgCl2 of 0.18 units of prenyl transferase in a volume of 900 μL. The incubation was conducted at 37° C. During the incubation, the mix turned cloudy white as the newly formed magnesium complex of farnesyl pyrophosphate precipitated out of solution. […]

Compound | IC50 (in absence of PPi) [nM] | IC50 (in presence of 1 mM PPi) [nM] | inhibition at 0.3 µg/mL (in presence of 1 mM PPi) [%]
Cn1cc(-c2noc(C3CN4CCC3CC4)n2)c2ccccc21 (centres unmarked) [Compound 3, 3-[3-(1-methyl-1H-indol-3-yl)-1,2,4-oxadiazol-5-yl]-1-azabicyclo[2.2.2]octane] | 1600 | 28 | –
Cn1cc(-c2noc(C3CN4CCC3CC4)n2)c2cc(F)ccc21 (centres unmarked) [Compound 4, 3-[3-(5-fluoro-1-methyl-1H-indol-3-yl)-1,2,4-oxadiazol-5-yl]-1-azabicyclo[2.2.2]octane] | – | – | 97
CC(=O)OC(c1ccccc1)c1noc(C2CN3CCC2CC3)n1 (centres unmarked) [Compound 6, 3-[3-(1-acetoxy-1-phenylmethyl)-1,2,4-oxadiazol-5-yl]-quinuclidine] | – | – | 70
OC(c1ccccc1)c1noc(C2CN3CCC2CC3)n1 (stereo not drawn) [Compound 7, α-phenyl-5-(1-azabicyclo[2.2.2]oct-3-yl)-1,2,4-oxadiazole-3-methanol] | – | – | 49
Cn1c(-c2noc(C3CN4CCC3CC4)n2)cc2ccccc21 (centres unmarked) [Compound 15, 3-[3-(1-methyl-1H-indol-2-yl)-1,2,4-oxadiazol-5-yl]-1-azabicyclo[2.2.2]octane] | 1100 | 20 | –
Cc1ccc2c(c1)c(-c1noc(C3CN4CCC3CC4)n1)cn2C (centres unmarked) [Compound 19, 3-[3-(1,5-dimethyl-1H-indol-3-yl)-1,2,4-oxadiazol-5-yl]-1-azabicyclo[2.2.2]octane] | – | 58 | 96
c1ccc(-c2noc(C3CN4CCC3CC4)n2)cc1 (centres unmarked) [Compound 24, 3-[3-phenyl-1,2,4-oxadiazol-5-yl]-1-azabicyclo[2.2.2]octane] | – | 43 | 98
c1cncc(-c2noc(C3CN4CCC3CC4)n2)c1 (centres unmarked) [Compound 26, 3-[3-(3-pyridinyl)-1,2,4-oxadiazol-5-yl]-1-azabicyclo[2.2.2]octane] | > 10000 | 660 | –
c1ccc2c(-c3noc(C4CN5CCC4CC5)n3)cccc2c1 (centres unmarked) [Compound 27, 3-[3-(1-naphthalenyl)-1,2,4-oxadiazol-5-yl]-1-azabicyclo[2.2.2]octane] | 2300 | 11 | 99
COc1cccc(-c2noc(C3CN4CCC3CC4)n2)c1 (centres unmarked) [Compound 28, 3-[3-(3-methoxyphenyl)-1,2,4-oxadiazol-5-yl]-1-azabicyclo[2.2.2]octane] | 2800 | 31 | 99
COc1ccccc1-c1noc(C2CN3CCC2CC3)n1 (centres unmarked) [Compound 29, 3-[3-(2-methoxyphenyl)-1,2,4-oxadiazol-5-yl]-1-azabicyclo[2.2.2]octane] | 14000 | 250 | –
COc1ccc(-c2noc(C3CN4CCC3CC4)n2)cc1 (centres unmarked) [Compound 30, 3-[3-(4-methoxyphenyl)-1,2,4-oxadiazol-5-yl]-1-azabicyclo[2.2.2]octane] | – | – | 99
Oc1ccccc1-c1noc(C2CN3CCC2CC3)n1 (centres unmarked) [Compound 31, 2-[5-(1-azabicyclo[2.2.2]oct-3-yl)-1,2,4-oxadiazol-5-yl]-phenol] | – | – | 90
Oc1cccc(-c2noc(C3CN4CCC3CC4)n2)c1 (centres unmarked) [Compound 32, 3-[5-(1-azabicyclo[2.2.2]oct-3-yl)-1,2,4-oxadiazol-5-yl]-phenol] | – | – | 92
Oc1ccc(-c2noc(C3CN4CCC3CC4)n2)cc1 (centres unmarked) [Compound 33, 4-[5-(1-azabicyclo[2.2.2]oct-3-yl)-1,2,4-oxadiazol-5-yl]-phenol] | – | – | 84
OC(c1ccccc1)(c1ccccc1)c1noc(C2CN3CCC2CC3)n1 (centres unmarked) [Compound 34, 3-[3-(1,1-diphenyl-1-hydroxymethyl)-1,2,4-oxadiazol-5-yl]-quinuclidine] | – | – | 60
c1ccc2c(-c3noc(C4CN5CCC4CC5)n3)c[nH]c2c1 (centres unmarked) [Compound 35, 3-[3-(1H-indol-3-yl)-1,2,4-oxadiazol-5-yl]-1-azabicyclo[2.2.2]octane] | 1900 | 23 | 98
c1ccc2ncc(-c3noc(C4CN5CCC4CC5)n3)cc2c1 (centres unmarked) [Compound 36, 3-[3-(3-quinolyl)-1,2,4-oxadiazol-5-yl]-1-azabicyclo[2.2.2]octane] | – | 42 | 97
O=C(c1ccccc1)c1noc(C2CN3CCC2CC3)n1 (centres unmarked) [Compound 37, 3-(3-benzoyl-1,2,4-oxadiazol-5-yl)quinuclidine] | – | – | 64
